Results on two molecules are retold here after patent publication US10357464B2, “Methods for delivering volatile anesthetics for regional anesthesia and/or pain relief” (The Board of Regents of the University of Texas System, priority 2006, dated 2019).

The test system of data set [1] is thermal C-fiber pain pathway. Description: Hotplate test after intrathecal injection of isoflurane dissolved in saline (Study C). In kind it is in vivo, rat. Particulars: 5 microliter isoflurane dissolved in saline. On the procedure: Isoflurane was dissolved into saline using the following method (also referred to as the “bubbling” method). Study C: A mock vaporizing device was created using a 500 ml modified Erlenmeyer flask (2 inlets and 1 catheter into the liquid phase). The flask was partially filled with 0.9% normal saline and a stoppered glass pipette was inserted into the bottom of the liquid phase for injection of isoflurane. A second egress pipette allowed egress of gas from the closed container. 2% isoflurane solution in oxygen at 2 L/min was injected through the pipette, saturating the 0.9% saline solution after approximately 10 minutes of injection. 5 mL was drawn from the saturated saline solution and administered to […] using the procedures outlined in Example I above. For study C, all animals were prepared as for experiments A and B. The inventors injected 4 animals with 5 microliter of dissolved isoflurane solution (as prepared in 0030) via intrathecal catheter. Note, control (baseline) latency to paw withdrawal is different in Study C due to a different intensity of heat lamp used. Each animal serves as its own control in study C. Study C Data is presented here: in seconds to paw withdrawal to heat source. Table and graphic format.

Data set [2] deals with thermal C-fiber pain pathway. Briefly: Hotplate test after intrathecal isoflurane dissolved in artificial cerebrospinal fluid (ACSF). In kind it is in vivo, rat. As to the method:
Pain sensitivity was measured after intrathecal administration of isoflurane in artificial cerebrospinal fluid (ACSF). Further, as detailed below, the isoflurane was first dissolved in ACSF and then sonicated before administration. The dose response relationship was then evaluated by generating a stimulus-response (SR) graph in order to determine relevant concentrations of isoflurane that may be administered intrathecally to achieve analgesia or anesthesia. The characterization of the pharmacological profile of intrathecal administration of isoflurane in ACSF was performed in this example using rats; further, as would be appreciated by one of skill in the art, analogous approaches may be used to determine the precise pharmacological profile in humans. Isoflurane dissolved in ACSF was prepared by the following method. […] The dose response relationship was then evaluated by generating a stimulus-response (SR) graph in order to standardize responses across animals and determine relevant concentrations of isoflurane that may be administered intrathecally to achieve analgesia or anesthesia. […] MPE is calculated as ((drug response time—baseline response time)/(cutoff time−baseline response time))*100. […]

A short description of data set [3]: Observation of adverse effects and recovery after intrathecal injection. To be noted: intrathecal injection of 2 microliters, rats. In kind it is in vivo, rat. As to the method:
These rats were then allowed time to recover from their intrathecal injection. There were no apparent adverse effects such as respiratory depression, cardiac, or neurological compromise. At 30 minutes after the injection, the rats were tested again, according to grouping:
This study also shed some light into the safety of intrathecally delivering active agent gases.

For data set [4], the system named is thermal C-fiber pain pathway. Briefly: Hotplate test (thermal withdrawal latency) after direct intrathecal injection of volatile anesthetic. To be noted: smallest intrathecally delivered dose of 2 microliters.

Values joined by “and” are separate entries in the source; they are usually repeats but may differ in a detail not shown here. Equal entries are not always repeated.

`FC(F)OC(Cl)C(F)(F)F` (stereo not shown) [isoflurane, 1-chloro-2,2,2-trifluoroethyl difluoromethyl ether]: the “seconds to paw withdrawal to heat source, 5 MIN, mean” value in data set [1] (5 min, mean of all readings (control mean 3.875)) was 14.82 s. Moreover, the “seconds to paw withdrawal to heat source, 5 MIN” value in data set [1] (5 min, single readings per rat) was 14.2 seconds and 20 seconds (3×) and 16 seconds and 9.8 seconds and 11.8 seconds (2×) and 9.1 seconds and 11 seconds and 15 seconds and 19.5 seconds and 10.9 seconds and 12.6 seconds and 18.1 seconds and 17.3 seconds. For the same molecule, the “seconds to paw withdrawal to heat source, 10 MIN, mean” value in data set [1] (10 min, mean of all readings) amounted to 9.181 s. In addition, the “seconds to paw withdrawal to heat source, 10 MIN” value in data set [1] (10 min, single readings per rat) is 12.2 seconds and 12 seconds (2×) and 9.1 seconds and 8.9 seconds and 8.8 seconds and 7.8 seconds and 10.2 seconds and 8.1 seconds and 5.4 seconds and 9 seconds (3×) and 6.8 seconds and 9.9 seconds and 8.7 seconds. In addition, the “seconds to paw withdrawal to heat source, 15 MIN, mean” value in data set [1] (15 min, mean of all readings) amounted to 7.375 s. Also, the “seconds to paw withdrawal to heat source, 15 MIN” value in data set [1] (15 min, single readings per rat) is 6.1 s and 7.1 s and 4.8 s and 5.2 s and 7.9 s and 6.4 s and 6.9 s and 4.3 s and 7.6 s and 7.3 s and 8.8 s and 7 s and 10.4 s and 9.4 s and 5.4 s and 13.4 s. Also, the “seconds to paw withdrawal to heat source, 30 MIN, mean” value in data set [1] (30 min, mean of all readings) was 5.9375 s. In addition, the “seconds to paw withdrawal to heat source, 30 MIN” value in data set [1] (30 min, single readings per rat) is 5.2 seconds (2×) and 6.1 seconds and 5.8 seconds and 6.5 seconds and 4.9 seconds (2×) and 4.3 seconds and 4.7 seconds and 3.8 seconds and 6.8 seconds and 7.2 seconds and 8.2 seconds and 6.9 seconds and 8.1 seconds and 6.4 seconds. Besides, the “seconds to paw withdrawal to heat source, 60 MIN, mean” value in data set [1] (60 min, mean of all readings) was 4.456 s. The “seconds to paw withdrawal to heat source, 60 MIN” value in data set [1] (60 min, single readings per rat) was 4.2 seconds (2×) and 3.5 seconds (3×) and 3.3 seconds and 3.8 seconds (3×) and 6.1 seconds and 5.8 seconds and 5.1 seconds and 4.9 seconds and 4.7 seconds and 7 seconds and 4.1 seconds. The “maximal possible effect (MPE)” value in data set [2] (10% v/v isoflurane in ACSF, 10 μl intrathecal (1.46 mg), 10 minutes after injection, cutoff 20 seconds) is reported as ~34%. In data set [2] (isoflurane in ACSF 10% v/v, 10 μL intrathecal, 1.46 mg dose), the “analgesia (hind paw withdrawal threshold to radiant heat)” value is “resulted in analgesia”. Also, the adverse effects entry in data set [3] was “None of the rats in the study experienced adverse effects”. Also, the “analgesic effect (thermal latency time)” value in data set [4] is “analgesic effect”.
With `FCOC(C(F)(F)F)C(F)(F)F` [sevoflurane], the adverse effects entry in data set [3] is “None of the rats in the study experienced adverse effects”. For the same molecule, the “analgesic effect (thermal latency time)” value in data set [4] is reported as “analgesic effect”.
